{"source": "patent US6989390B2", "about": "“Amonafide salts” (priority 2002, dated 2006)", "key": {"[1]": {"experiment": "Minimum amount of water/ethanol (1.5/4 v/v) required to dissolve the crude salt at boil (recrystallization)", "type": "physicochemical", "conditions": "minimum water/ethanol (1.5/4 v/v) to dissolve crude product at boil; salt made by the method in column 2", "text": "For comparative purposes, between and among organic salts prepared in this manner and for the purposes of subsequent Example 3, Table 3, crude reaction products were recrystalized from water/ethanol (1.5/4 v/v per gram of salt) using the minimum amount of solvent to effect dissolution at boil.\nIn the case of succinic acid, the organic acid was dispensed as a half-equivalent in order to generate mitonafide hemisuccinate. […] Crude product that was isolated from the hydrogenation reaction mixture was analyzed for purity by high pressure liquid chromatography (HPLC) according to the conditions described in Table 1 above. The crude product was recrystallized from water/ethanol (1.5/4 v/v) using the minimum amount of solvent required to dissolve the crude product at boil, which is shown in the last column of Table 3 for each salt. The recrystallized product was then analyzed for purity by HPLC.\nThe purities of the crude salts were assessed by HPLC according to the conditions described in Table 1 above. The crude salts were then recrystallized from the minimum amount of water/ethanol (1.5/4 v/v) using the minimum amount of solvent required to dissolve the crude product at boil, which is shown in the last column of Table 3 for each salt. The resulting purified salts were again assessed for purity.\nThe hydrochloride and methanesulfonic acid salts of amonafide were prepared according to U.S. Pat. No. 5,420,137. Exemplary procedures are as follows: 3 g of crude amonafide free base, obtained as described in the previous two paragraphs, above, were dissolved under reflux in 60 ml of virtually anhydrous ethanol. Subsequently 1 ml of 35% (1 equivalent, estimated) strength hydrochloric acid was added dropwise while shaking vigorously. After cooling, the resulting crystals were filtered off and washed with 10 ml of anhydrous ethanol. The methanesulfonic acid salt was obtained using the same procedure, but replacing hydrochloric acid with 0.8 ml of methanesulfonic acid. The purity was assessed by HPLC using the conditions described in Table 1. The isolated products were then recrystallized from water/ethanol (1.5/4 v/v) using the minimum amounts of solvent required to dissolve the crude product at boil, which are shown for each salt in Table 3. The resulting purified salts were again assessed for purity.\nThe hydrochloride salt of amonafide was obtained by the method of Zee-Chang et al., U.S. Pat. No. 4,614,820. Exemplary conditions are as follows: a mixture of the hydrochloride salt of N-(dimethylaminoethyl)-3-nitro-1,8-naphthalimide and 10% palladium-on-charcoal in water was hydrogenated at room temperature under 40 lbs/in^2 of hydrogen for one hour. […] To the mixture was added 3 ml of concentrated hydrochloric acid. It was then filtered and the filtrate was evaporated to dryness under reduced pressure. The residue was triturated with 30 ml of absolute ethanol and filtered. The resulting solid was then washed with ether and dried. The purity was assessed by HPLC using the conditions described in Table 1. The crude product was then recrystallized from water/ethanol (1.5/4 v/v) using the minimum amount of solvent (40 mL/g) required to dissolve the crude product at boil. The resulting purified salts were again assessed for purity."}, "[2]": {"experiment": "Solubility assessment of amonafide salts (50, 100, 200 mg in 1 ml USP water or isotonic saline)", "type": "physicochemical", "protocol": "A number of organic acid amonafide salts of the present invention were tested for their solubility in aqueous medium and compared with the solubility of the corresponding hydrochloride and methansolufonic acid salts. […] Solutions were allowed to equilibrate for 1 hour, their dissolution status noted, and then refrigerated for an additional hour (at 2° C.). Thereafter, the samples were returned to room temperature and examined for precipitate formation and allowed to equilibrate for another hour until a final inspection for dissolution status."}, "[3]": {"conditions": "50 mg salt in 1 ml 0.9% sodium chloride (saline), 0 hours"}, "[4]": {"conditions": "50 mg salt in 1 ml 0.9% sodium chloride (saline), 1 hours"}, "[5]": {"conditions": "50 mg salt in 1 ml distilled water, 0 hours"}, "[6]": {"conditions": "50 mg salt in 1 ml distilled water, 1 hours"}, "[7]": {"conditions": "100 mg salt in 1 ml 0.9% sodium chloride (saline), 0 hours"}, "[8]": {"conditions": "100 mg salt in 1 ml 0.9% sodium chloride (saline), 1 hours"}, "[9]": {"conditions": "100 mg salt in 1 ml distilled water, 0 hours"}, "[10]": {"conditions": "100 mg salt in 1 ml distilled water, 1 hours"}}, "note": "Counter-ions that a name gives are not always drawn.", "data": [{"compound": "CN(C)CCN1C(=O)c2cccc3cc(N)cc(c23)C1=O.O=C(O)CCC(=O)C(=O)O", "note": "[Amonafide 2-oxoglutarate]", "values": [{"measurement": "Solvent", "setting": "[1]", "result": 30, "unit": "mL/g"}]}, {"compound": "CN(C)CCN1C(=O)c2cccc3cc(N)cc(c23)C1=O.O=C(O)CCCCC(=O)O", "note": "[Amonafide Adipate]", "values": [{"measurement": "Solvent", "setting": "[1]", "result": 25, "unit": "mL/g"}]}, {"compound": "CN(C)CCN1C(=O)c2cccc3cc(N)cc(c23)C1=O.O=C(O)CC(O)(CC(=O)O)C(=O)O", "note": "[Amonafide Citrate]", "values": [{"measurement": "Solvent", "setting": "[1]", "result": 25, "unit": "mL/g"}]}, {"compound": "CN(C)CCN1C(=O)c2cccc3cc(N)cc(c23)C1=O", "note": "[Amonafide HCl, Amonafide Monohydrochloride, reference compound]", "values": [{"measurement": "Solvent", "setting": "[1]", "result": 40, "unit": "mL/g"}, {"measurement": "solubility in the test panel of Tables 3 and 4", "setting": "[2]; monohydrochloride prepared by salt exchange, 99.2% pure", "result": "low solubility"}]}, {"compound": "CN(C)CCN1C(=O)c2cccc3cc(N)cc(c23)C1=O.O=C(O)C(O)C(O)C(=O)O", "note": "[Amonafide L-tartrate]", "values": [{"measurement": "Solvent", "setting": "[1]", "result": 20, "unit": "mL/g"}]}, {"compound": "CN(C)CCN1C(=O)c2cccc3cc(N)cc(c23)C1=O.O=C(O)CO", "note": "[Amonafide glycolate]", "values": [{"measurement": "Solvent", "setting": "[1]", "result": 12.5, "unit": "mL/g"}]}, {"compound": "CN(C)CCN1C(=O)c2cccc3cc(N)cc(c23)C1=O.O=C(O)CC(=O)O", "note": "[Amonafide malonate, amonafide malonate]", "values": [{"measurement": "Solvent", "setting": "[1]", "result": 20, "unit": "mL/g"}]}, {"compound": "CN(C)CCN1C(=O)c2cccc3cc(N)cc(c23)C1=O.O=C(O)c1ccccc1O", "note": "[Amonafide salicylate]", "values": [{"measurement": "Solvent", "setting": "[1]", "result": 35, "unit": "mL/g"}]}, {"compound": "CN(C)CCN1C(=O)c2cccc3cc(N)cc(c23)C1=O.CS(=O)(=O)O", "note": "[Amonafine methanesulfonate, reference compound]", "values": [{"measurement": "Solvent", "setting": "[1]", "result": 25, "unit": "mL/g"}]}, {"compound": "Amonafide Aspartate", "values": [{"measurement": "Solvent", "setting": "[1]", "result": 30, "unit": "mL/g"}]}, {"compound": "Amonafide pyruvate", "values": [{"measurement": "Solvent", "setting": "[1]", "result": 20, "unit": "mL/g"}, {"measurement": "Dissolution Status", "setting": "[2]; [3]", "result": "Soluble"}, {"measurement": "Dissolution Status", "setting": "[2]; [4]", "result": "Soluble"}, {"measurement": "Dissolution Status", "setting": "[2]; [5]", "result": "Soluble"}, {"measurement": "Dissolution Status", "setting": "[2]; [6]", "result": "Soluble"}, {"measurement": "Dissolution Status", "setting": "[2]; [7]", "result": "Soluble"}, {"measurement": "Dissolution Status", "setting": "[2]; [8]", "result": "Soluble"}, {"measurement": "Dissolution Status", "setting": "[2]; [9]", "result": "Soluble"}, {"measurement": "Dissolution Status", "setting": "[2]; [10]", "result": "Soluble"}, {"measurement": "Dissolution Status", "setting": "[2]; 200 mg salt in 1 ml 0.9% sodium chloride (saline), 0 hours", "result": "Partially Soluble"}, {"measurement": "Dissolution Status", "setting": "[2]; 200 mg salt in 1 ml 0.9% sodium chloride (saline), 1 hours", "result": "Partially Soluble"}, {"measurement": "Dissolution Status", "setting": "[2]; 200 mg salt in 1 ml distilled water, 0 hours", "result": "Soluble"}, {"measurement": "Dissolution Status", "setting": "[2]; 200 mg salt in 1 ml distilled water, 1 hours", "result": "Soluble"}, {"measurement": "solubility in distilled water and in saline at high concentration compared with the hydrochloride salt forms / organic salts", "setting": "[2]; text summary of Table 4", "result": "more soluble"}]}, {"compound": "Amonafide succinate", "values": [{"measurement": "Solvent", "setting": "[1]", "result": 20, "unit": "mL/g"}, {"measurement": "Dissolution Status", "setting": "[2]; [3]", "result": "Insoluble"}, {"measurement": "Dissolution Status", "setting": "[2]; [4]", "result": "Insoluble"}, {"measurement": "Dissolution Status", "setting": "[2]; [5]", "result": "Soluble"}, {"measurement": "Dissolution Status", "setting": "[2]; [6]", "result": "Soluble"}, {"measurement": "Dissolution Status", "setting": "[2]; [7]", "result": "Insoluble"}, {"measurement": "Dissolution Status", "setting": "[2]; [8]", "result": "Insoluble"}, {"measurement": "Dissolution Status", "setting": "[2]; [9]", "result": "Insoluble"}, {"measurement": "Dissolution Status", "setting": "[2]; [10]", "result": "Insoluble"}]}, {"compound": "amonafide fumarate", "values": [{"measurement": "Solvent", "setting": "[1]", "result": 25, "unit": "mL/g"}, {"measurement": "Dissolution Status", "setting": "[2]; [3]", "result": "Insoluble"}, {"measurement": "Dissolution Status", "setting": "[2]; [4]", "result": "Insoluble"}, {"measurement": "Dissolution Status", "setting": "[2]; [5]", "result": "Insoluble"}, {"measurement": "Dissolution Status", "setting": "[2]; [6]", "result": "Insoluble"}]}, {"compound": "amonafide hemisuccinate [Amonafide hemi-succinate]", "values": [{"measurement": "Solvent", "setting": "[1]", "result": 15, "unit": "mL/g"}]}, {"compound": "amonafide maleate", "values": [{"measurement": "Solvent", "setting": "[1]", "result": 20, "unit": "mL/g"}, {"measurement": "Dissolution Status", "setting": "[2]; [3]", "result": "Insoluble"}, {"measurement": "Dissolution Status", "setting": "[2]; [4]", "result": "Insoluble"}, {"measurement": "Dissolution Status", "setting": "[2]; [5]", "result": "Insoluble"}, {"measurement": "Dissolution Status", "setting": "[2]; [6]", "result": "Insoluble"}]}]}
